Data from patent publication US10844077B2, “Thiazolyl-containing compounds for treating proliferative diseases” (Dana-Farber Cancer Institute, Inc., priority 2014, dated 2020).
Where “and” joins values, the source holds several entries; their conditions need not be identical. Identical values can stand only once.

How the values were obtained:
[1] = target: kinases in BCWM.1 cells (Homo sapiens, UniProt Q8TDX7); type: cell-based; settings: NEK7; Lys1; 1 μM, 90 min; GF
Protocol: The cells were harvested and lysed. […] Bound kinases were identified and quantitated by ACTIVX as described in Patricelli et al., Biochemistry, 2007, 46(2): 350-358. The compounds were tested in duplicates against duplicate or quadruplicate control samples.

[2] = target: AKT1 (Homo sapiens (Human), UniProt P31749); assay: KINATIV assay; type: cell-based; settings: 1 μM, 90 minutes, BCWM.1 cells
Procedure, shortened: (§1)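 ATP-biotin probe labeling of whole-cell lysates, followed by ACTIVX identification/quantitation of bound kinases; compounds in duplicate.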

[3] = target: CDC2 (Homo sapiens (Human), UniProt P06493); assay: KINATIV assay; type: cell-based; settings: 1 μM, 90 minutes, BCWM.1 cells
Procedure, shortened: as §1

[4] = target: eEF2K (Homo sapiens (Human), UniProt O00418); assay: KINATIV assay; type: cell-based; settings: 1 μM, 90 minutes, BCWM.1 cells
Procedure, shortened: as §1

[5] = target: ULK1 (Homo sapiens (Human), UniProt O75385); assay: KINATIV assay; type: cell-based; settings: 1 μM, 90 minutes, BCWM.1 cells
Procedure, shortened: as §1

[6] = target: LCK (Homo sapiens (Human), UniProt P06239); assay: KINATIV assay; type: cell-based; settings: 1 μM, 90 minutes, BCWM.1 cells
Procedure, shortened: as §1

[7] = tested on: ZC1/HGK, ZC2/TNIK, ZC3/MINK; assay: KINATIV assay; type: cell-based; settings: 1 μM, 90 minutes, BCWM.1 cells
Procedure, shortened: as §1

[8] = target: ROCK1 (Homo sapiens (Human), UniProt Q13464); assay: KINATIV assay; type: cell-based; settings: 1 μM, 90 minutes, BCWM.1 cells
Procedure, shortened: as §1

[9] = target: FES (Homo sapiens (Human), UniProt P07332); assay: KINATIV assay; type: cell-based; settings: 1 μM, 90 minutes, BCWM.1 cells
Procedure, shortened: as §1

[10] = tested on: MARK1, MARK2; assay: KINATIV assay; type: cell-based; settings: 1 μM, 90 minutes, BCWM.1 cells
Procedure, shortened: as §1

[11] = target: PKD2 (Homo sapiens (Human), UniProt Q9BZL6); assay: KINATIV assay; type: cell-based; settings: 1 μM, 90 minutes, BCWM.1 cells
Procedure, shortened: as §1

[12] = target: SNRK (Homo sapiens (Human), UniProt Q9NRH2); assay: KINATIV assay; type: cell-based; settings: 1 μM, 90 minutes, BCWM.1 cells
Procedure, shortened: as §1

[13] = tested on: Wnk1, Wnk2; assay: KINATIV assay; type: cell-based; settings: 1 μM, 90 minutes, BCWM.1 cells
Procedure, shortened: as §1

[14] = tested on: CDK11, CDK8; assay: KINATIV assay; type: cell-based; settings: 1 μM, 90 minutes, BCWM.1 cells
Procedure, shortened: as §1

[15] = target: PKN1 (Homo sapiens (Human), UniProt Q16512); assay: KINATIV assay; type: cell-based; settings: 1 μM, 90 minutes, BCWM.1 cells
Procedure, shortened: as §1

[16] = target: CK2a1 (Homo sapiens (Human), UniProt P68400); assay: KINATIV assay; type: cell-based; settings: 1 μM, 90 minutes, BCWM.1 cells
Procedure, shortened: as §1

[17] = tested on: IKKe, TBK1; assay: KINATIV assay; type: cell-based; settings: 1 μM, 90 minutes, BCWM.1 cells
Procedure, shortened: as §1

[18] = target: PIK3C2B (Homo sapiens (Human), UniProt O00750); assay: KINATIV assay; type: cell-based; settings: 1 μM, 90 minutes, BCWM.1 cells
Procedure, shortened: as §1

[19] = target: STK33 (Homo sapiens (Human), UniProt Q9BYT3); assay: KINATIV assay; type: cell-based; settings: 1 μM, 90 minutes, BCWM.1 cells
Procedure, shortened: as §1

[20] = target: TLK2 (Homo sapiens (Human), UniProt Q86UE8); assay: KINATIV assay; type: cell-based; settings: 1 μM, 90 minutes, BCWM.1 cells
Procedure, shortened: as §1

[21] = target: LKB1 (Homo sapiens (Human), UniProt Q15831); assay: KINATIV assay; type: cell-based; settings: 1 μM, 90 minutes, BCWM.1 cells
Procedure, shortened: as §1

[22] = target: MAP3K1 (Homo sapiens (Human), UniProt Q13233); assay: KINATIV assay; type: cell-based; settings: 1 μM, 90 minutes, BCWM.1 cells
Procedure, shortened: as §1

[23] = target: CK1g2 (Homo sapiens (Human), UniProt P78368); assay: KINATIV assay; type: cell-based; settings: 1 μM, 90 minutes, BCWM.1 cells
Procedure, shortened: as §1

[24] = target: Erk1 (Homo sapiens (Human), UniProt P27361); assay: KINATIV assay; type: cell-based; settings: 1 μM, 90 minutes, BCWM.1 cells
Procedure, shortened: as §1

[25] = target: STLK5 (Homo sapiens (Human), UniProt Q7RTN6); assay: KINATIV assay; type: cell-based; settings: 1 μM, 90 minutes, BCWM.1 cells
Procedure, shortened: as §1

[26] = target: RSK4 domain1 (Homo sapiens (Human), UniProt Q9UK32); assay: KINATIV assay; type: cell-based; settings: 1 μM, 90 minutes, BCWM.1 cells
Procedure, shortened: as §1

[27] = target: MAP2K7 (Homo sapiens (Human), UniProt O14733); assay: KINATIV assay; type: cell-based; settings: 1 μM, 90 minutes, BCWM.1 cells
Procedure, shortened: as §1

[28] = target: MST1 (Homo sapiens (Human), UniProt Q13043); assay: KINATIV assay; type: cell-based; settings: 1 μM, 90 minutes, BCWM.1 cells
Procedure, shortened: as §1

[29] = target: MSK1 domain1 (Homo sapiens (Human), UniProt O75582); assay: KINATIV assay; type: cell-based; settings: 1 μM, 90 minutes, BCWM.1 cells
Procedure, shortened: as §1

[30] = target: MST2 (Homo sapiens (Human), UniProt Q13188); assay: KINATIV assay; type: cell-based; settings: 1 μM, 90 minutes, BCWM.1 cells
Procedure, shortened: as §1

[31] = target: RSK3 (Homo sapiens (Human), UniProt Q15349); assay: KINATIV assay; type: cell-based; settings: 1 μM, 90 minutes, BCWM.1 cells
Procedure, shortened: as §1

[32] = target: ILK (Homo sapiens (Human), UniProt Q13418); assay: KINATIV assay; type: cell-based; settings: 1 μM, 90 minutes, BCWM.1 cells
Procedure, shortened: as §1

[33] = target: BARK1 (Homo sapiens (Human), UniProt P25098); assay: KINATIV assay; type: cell-based; settings: 1 μM, 90 minutes, BCWM.1 cells
Procedure, shortened: as §1

[34] = target: PRP4 (Homo sapiens (Human), UniProt Q13523)
Protocol: (§2) The cells were harvested and lysed. The lysates were directly labeled with an ATP-biotin probe. Bound kinases were identified and quantitated by ACTIVX as described in Patricelli et al., Biochemistry, 2007, 46(2): 350-358. The compounds were tested in duplicates against duplicate or quadruplicate control samples.

[35] = target: MAPKAPK3 (Homo sapiens (Human), UniProt Q16644)
Protocol: as §2

[36] = target: PRPK (Homo sapiens (Human), UniProt Q96S44)
Protocol: as §2

[37] = target: PCTAIRE1 (Homo sapiens (Human), UniProt Q00536)
Protocol: as §2

[38] = target: PCTAIRE2 (Homo sapiens (Human), UniProt Q00537)
Protocol: as §2

SNRK, sequence (Q9NRH2 whole entry): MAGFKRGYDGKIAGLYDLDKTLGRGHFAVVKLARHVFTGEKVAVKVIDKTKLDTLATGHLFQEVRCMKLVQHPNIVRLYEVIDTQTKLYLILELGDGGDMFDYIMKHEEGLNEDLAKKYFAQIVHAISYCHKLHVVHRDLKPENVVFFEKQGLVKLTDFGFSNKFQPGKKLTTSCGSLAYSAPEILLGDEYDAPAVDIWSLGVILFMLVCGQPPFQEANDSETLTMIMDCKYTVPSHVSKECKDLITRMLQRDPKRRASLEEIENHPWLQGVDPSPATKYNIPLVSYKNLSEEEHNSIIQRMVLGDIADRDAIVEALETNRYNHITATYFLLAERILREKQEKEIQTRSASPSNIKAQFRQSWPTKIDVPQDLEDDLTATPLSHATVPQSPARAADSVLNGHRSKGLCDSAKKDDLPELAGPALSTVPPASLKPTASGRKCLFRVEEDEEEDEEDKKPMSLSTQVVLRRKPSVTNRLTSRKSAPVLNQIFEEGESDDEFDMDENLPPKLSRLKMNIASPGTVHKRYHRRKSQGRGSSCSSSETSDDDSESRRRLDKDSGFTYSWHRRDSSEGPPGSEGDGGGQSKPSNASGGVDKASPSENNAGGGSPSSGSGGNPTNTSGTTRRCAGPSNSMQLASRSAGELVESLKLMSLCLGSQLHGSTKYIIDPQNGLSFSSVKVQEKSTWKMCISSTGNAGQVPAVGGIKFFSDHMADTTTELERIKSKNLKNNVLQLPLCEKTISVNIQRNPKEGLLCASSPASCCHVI
STLK5, sequence (Q7RTN6 whole entry): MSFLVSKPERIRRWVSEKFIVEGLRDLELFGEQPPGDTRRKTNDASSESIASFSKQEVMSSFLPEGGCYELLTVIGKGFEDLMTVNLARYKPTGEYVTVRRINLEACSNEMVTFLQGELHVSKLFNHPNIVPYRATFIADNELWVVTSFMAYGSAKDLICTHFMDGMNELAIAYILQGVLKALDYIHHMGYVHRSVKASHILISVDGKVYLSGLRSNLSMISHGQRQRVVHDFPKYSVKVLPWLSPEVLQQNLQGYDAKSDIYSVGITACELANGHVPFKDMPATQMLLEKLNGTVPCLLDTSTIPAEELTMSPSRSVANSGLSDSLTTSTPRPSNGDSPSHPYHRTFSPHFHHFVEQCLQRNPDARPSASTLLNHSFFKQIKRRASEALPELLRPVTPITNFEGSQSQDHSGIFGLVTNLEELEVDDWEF
TLK2, sequence (Q86UE8 whole entry): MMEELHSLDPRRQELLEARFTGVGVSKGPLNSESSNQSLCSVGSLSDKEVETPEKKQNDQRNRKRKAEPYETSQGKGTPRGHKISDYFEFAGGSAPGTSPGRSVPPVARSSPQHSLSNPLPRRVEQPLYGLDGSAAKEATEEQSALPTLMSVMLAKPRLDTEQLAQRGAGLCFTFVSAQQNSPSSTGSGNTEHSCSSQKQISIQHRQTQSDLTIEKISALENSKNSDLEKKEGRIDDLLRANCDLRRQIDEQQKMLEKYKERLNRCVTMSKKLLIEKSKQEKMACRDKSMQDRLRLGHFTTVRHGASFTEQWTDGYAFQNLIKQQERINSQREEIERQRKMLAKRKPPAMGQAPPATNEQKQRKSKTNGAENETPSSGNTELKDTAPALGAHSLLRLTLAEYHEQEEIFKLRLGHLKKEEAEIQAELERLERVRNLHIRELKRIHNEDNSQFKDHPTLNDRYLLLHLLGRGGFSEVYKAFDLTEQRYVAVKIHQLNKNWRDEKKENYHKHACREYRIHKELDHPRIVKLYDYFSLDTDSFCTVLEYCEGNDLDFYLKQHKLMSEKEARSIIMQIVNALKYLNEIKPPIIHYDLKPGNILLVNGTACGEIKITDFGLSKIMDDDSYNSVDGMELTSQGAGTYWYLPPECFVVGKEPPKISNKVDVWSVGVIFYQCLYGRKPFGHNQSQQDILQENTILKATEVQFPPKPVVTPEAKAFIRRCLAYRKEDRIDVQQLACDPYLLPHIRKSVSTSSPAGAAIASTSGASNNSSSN
PRP4, sequence (Q13523 whole entry, looked up): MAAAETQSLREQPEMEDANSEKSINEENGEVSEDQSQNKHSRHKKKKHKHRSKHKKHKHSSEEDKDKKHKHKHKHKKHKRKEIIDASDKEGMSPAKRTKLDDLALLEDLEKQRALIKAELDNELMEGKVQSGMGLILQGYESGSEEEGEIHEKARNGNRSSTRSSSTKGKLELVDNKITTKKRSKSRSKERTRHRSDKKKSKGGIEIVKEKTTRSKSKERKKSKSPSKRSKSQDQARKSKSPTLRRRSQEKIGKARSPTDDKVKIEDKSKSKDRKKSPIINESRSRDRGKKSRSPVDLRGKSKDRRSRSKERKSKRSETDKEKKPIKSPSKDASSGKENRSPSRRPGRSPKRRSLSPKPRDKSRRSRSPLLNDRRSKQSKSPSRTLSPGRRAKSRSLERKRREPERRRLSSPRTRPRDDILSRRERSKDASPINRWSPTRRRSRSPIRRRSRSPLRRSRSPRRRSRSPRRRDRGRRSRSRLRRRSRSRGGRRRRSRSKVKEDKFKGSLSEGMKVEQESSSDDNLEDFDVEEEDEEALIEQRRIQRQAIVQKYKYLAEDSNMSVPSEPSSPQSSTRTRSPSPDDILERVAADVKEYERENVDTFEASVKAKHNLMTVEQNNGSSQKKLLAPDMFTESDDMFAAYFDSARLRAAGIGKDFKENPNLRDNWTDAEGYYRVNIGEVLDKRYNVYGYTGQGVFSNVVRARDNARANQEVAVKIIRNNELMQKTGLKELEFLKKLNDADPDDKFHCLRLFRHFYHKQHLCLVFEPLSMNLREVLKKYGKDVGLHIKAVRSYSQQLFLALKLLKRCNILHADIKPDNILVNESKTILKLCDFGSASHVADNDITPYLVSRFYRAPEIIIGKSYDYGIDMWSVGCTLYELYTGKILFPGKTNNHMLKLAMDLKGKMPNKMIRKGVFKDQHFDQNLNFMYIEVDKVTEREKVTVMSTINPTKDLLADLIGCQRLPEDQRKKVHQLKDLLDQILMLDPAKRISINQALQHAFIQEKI
LKB1, sequence (Q15831 1-430): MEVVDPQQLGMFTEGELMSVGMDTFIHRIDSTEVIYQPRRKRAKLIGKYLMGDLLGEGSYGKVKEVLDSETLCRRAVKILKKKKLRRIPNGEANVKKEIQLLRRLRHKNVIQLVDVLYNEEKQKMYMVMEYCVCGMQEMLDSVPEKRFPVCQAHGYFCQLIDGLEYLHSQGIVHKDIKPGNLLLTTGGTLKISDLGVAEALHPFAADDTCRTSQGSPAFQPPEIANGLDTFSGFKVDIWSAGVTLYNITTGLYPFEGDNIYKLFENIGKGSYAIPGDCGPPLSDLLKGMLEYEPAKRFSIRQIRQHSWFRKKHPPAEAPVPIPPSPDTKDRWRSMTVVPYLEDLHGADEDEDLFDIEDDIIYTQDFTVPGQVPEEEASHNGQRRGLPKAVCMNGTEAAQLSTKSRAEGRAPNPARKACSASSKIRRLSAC
LKB1, sequence (Q7RTN6 whole entry partner): as the sequence (Q7RTN6 whole entry) above
LKB1, sequence (Q9Y376 whole entry partner): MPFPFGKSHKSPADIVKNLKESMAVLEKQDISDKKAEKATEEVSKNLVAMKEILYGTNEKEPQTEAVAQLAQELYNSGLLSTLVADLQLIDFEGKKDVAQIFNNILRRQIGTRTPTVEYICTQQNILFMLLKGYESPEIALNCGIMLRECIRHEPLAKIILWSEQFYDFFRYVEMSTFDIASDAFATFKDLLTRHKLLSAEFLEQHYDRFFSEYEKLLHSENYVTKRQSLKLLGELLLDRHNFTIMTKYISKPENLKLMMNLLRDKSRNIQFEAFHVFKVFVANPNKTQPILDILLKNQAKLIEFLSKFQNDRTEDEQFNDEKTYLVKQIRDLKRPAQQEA
LCK, sequence (P06239 whole entry): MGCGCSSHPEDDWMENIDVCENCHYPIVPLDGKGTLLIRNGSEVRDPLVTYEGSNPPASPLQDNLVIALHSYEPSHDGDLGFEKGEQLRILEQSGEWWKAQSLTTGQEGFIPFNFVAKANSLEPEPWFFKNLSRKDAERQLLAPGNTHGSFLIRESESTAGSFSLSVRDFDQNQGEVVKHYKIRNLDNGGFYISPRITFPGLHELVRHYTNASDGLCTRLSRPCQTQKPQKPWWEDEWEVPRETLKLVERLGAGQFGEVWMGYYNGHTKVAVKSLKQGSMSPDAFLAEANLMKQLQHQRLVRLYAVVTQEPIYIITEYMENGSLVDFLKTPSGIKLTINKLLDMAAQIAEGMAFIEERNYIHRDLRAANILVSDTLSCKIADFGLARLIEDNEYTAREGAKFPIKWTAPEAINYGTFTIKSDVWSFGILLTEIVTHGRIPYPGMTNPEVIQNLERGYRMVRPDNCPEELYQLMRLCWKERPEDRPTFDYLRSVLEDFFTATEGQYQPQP
RSK4 domain1, sequence (Q9UK32 whole entry, the tested form may be a part): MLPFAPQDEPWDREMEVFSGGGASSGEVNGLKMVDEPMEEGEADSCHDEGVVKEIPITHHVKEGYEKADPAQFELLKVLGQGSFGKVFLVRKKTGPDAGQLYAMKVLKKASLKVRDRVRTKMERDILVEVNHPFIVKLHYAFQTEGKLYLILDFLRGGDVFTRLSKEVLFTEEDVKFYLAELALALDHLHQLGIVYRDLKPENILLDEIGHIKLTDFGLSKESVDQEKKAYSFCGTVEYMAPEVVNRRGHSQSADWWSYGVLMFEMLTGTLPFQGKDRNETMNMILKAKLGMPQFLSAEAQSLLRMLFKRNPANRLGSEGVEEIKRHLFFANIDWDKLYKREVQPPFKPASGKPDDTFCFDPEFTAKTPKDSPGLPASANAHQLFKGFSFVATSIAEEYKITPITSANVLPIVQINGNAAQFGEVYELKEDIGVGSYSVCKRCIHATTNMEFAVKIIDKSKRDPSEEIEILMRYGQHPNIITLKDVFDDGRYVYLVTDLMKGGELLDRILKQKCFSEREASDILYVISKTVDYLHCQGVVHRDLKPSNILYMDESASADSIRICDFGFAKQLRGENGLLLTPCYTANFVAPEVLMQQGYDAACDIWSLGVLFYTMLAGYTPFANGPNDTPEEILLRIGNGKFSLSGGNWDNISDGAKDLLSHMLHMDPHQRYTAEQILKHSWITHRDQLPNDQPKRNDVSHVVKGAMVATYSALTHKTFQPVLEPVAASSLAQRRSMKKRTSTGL

SMILES: C=CC(=O)N1CC[C@H](Nc2nccc(Nc3ncc(C(=O)Nc4c(C)cccc4C)s3)n2)C1 [Example I-3]
- % change of MS signal compared to control sample [1]: −14.7%

SMILES: C=CC(=O)N1CC[C@@H](Nc2nccc(Nc3ncc(C(=O)Nc4c(C)cccc4C)s3)n2)C1 [Example I-4]
- % change of MS signal compared to control sample [2]: −11.0%
- % change of MS signal compared to control sample [3]: −24.9%
- % change of MS signal compared to control sample [4]: 0.3%
- % change of MS signal compared to control sample [5]: 16.2%
- % change of MS signal compared to control sample [6]: 96.1%
- % change of MS signal compared to control sample [7]: 3.3%
- % change of MS signal compared to control sample [8]: 6.7%
- % change of MS signal compared to control sample [9]: −15.6%
- % change of MS signal compared to control sample [10]: 17.1%
- % change of MS signal compared to control sample [11]: 12.9%
- % change of MS signal compared to control sample [12]: 35.3% and 61.9%
- % change of MS signal compared to control sample [13]: 7.8%
- % change of MS signal compared to control sample [14]: −36.1%
- % change of MS signal compared to control sample [15]: 17.4%
- % change of MS signal compared to control sample [16]: 24.6%
- % change of MS signal compared to control sample [17]: −38.7%
- % change of MS signal compared to control sample [18]: −5.8%
- % change of MS signal compared to control sample [19]: −23.0%
- % change of MS signal compared to control sample [20]: 8.7%
- % change of MS signal compared to control sample [21]: −4.5%
- % change of MS signal compared to control sample [22]: 18.4%
- % change of MS signal compared to control sample [23]: −4.5%
- % change of MS signal compared to control sample [24]: −10.9%
- % change of MS signal compared to control sample [25]: 2.0% and −4.4%
- % change of MS signal compared to control sample [26]: 3.5%
- % change of MS signal compared to control sample [27]: −10.1%
- % change of MS signal compared to control sample [28]: 7.0%
- % change of MS signal compared to control sample [29]: −15.8%
- % change of MS signal compared to control sample [30]: 12.3%
- % change of MS signal compared to control sample [31]: 16.8%
- % change of MS signal compared to control sample [32]: −19.1%
- % change of MS signal compared to control sample [33]: −8.1%
- % change of MS signal compared to control sample [34]: 6.9%
- % change of MS signal compared to control sample [35]: 7.0%
- % change of MS signal compared to control sample [36]: −13.6%
- % change of MS signal compared to control sample [37]: 19.0%
- % change of MS signal compared to control sample [38]: 13.4%

SMILES: CCC(=O)N1CC[C@H](Nc2nccc(Nc3ncc(C(=O)Nc4c(C)cccc4C)s3)n2)C1 [Example I-9]
- % change of MS signal compared to control sample [1]: 8%
